Legend:
barnyard grass [1] = test: Test Example 5: herbicidal effect by foliage application, plastic box (Table 20, symbol H); type: in vivo, barnyard grass (Echinochloa crus-galli); conditions: foliage application, 320 g/ha, three weeks after application
Method in brief: (§1)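 Foliar spray test: emulsion formulation diluted in water to a set application rate, sprayed onto 14-day-old plants raised in diluvial soil at 25° C to 30° C under glass. Both herbicidal effect and crop effect rated visually three weeks later.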

Italian ryegrass [2] = test: Test Example 5: herbicidal effect by foliage application, plastic box (Table 20, symbol K); type: in vivo, Italian ryegrass (Lolium multiflorum); conditions: foliage application, 320 g/ha, three weeks after application
Method in brief: as §1

barnyard grass [3] = test: Test Example 4: herbicidal effect by soil treatment (Table 19, symbol H); type: in vivo, barnyard grass (Echinochloa crus-galli); conditions: amount of applied herbicide 320 g/ha
Method in brief: (§2)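 Herbicidal effect was rated 3 weeks after treatment, using the scoring criteria of an earlier test. The compound, formulated as an emulsion and diluted in water to a set herbicide amount, had been sprayed uniformly on soil over freshly sown seeds. Growth took place in a greenhouse at 25° C. to 30° C.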

blackgrass [4] = test: Test Example 5: herbicidal effect by foliage application, plastic box (Table 20, symbol J); type: in vivo, blackgrass (Alopecurus myosuroides); conditions: foliage application, 320 g/ha, three weeks after application
Method in brief: as §1

velvetleaf [5] = test: Test Example 5: herbicidal effect by foliage application, plastic box (Table 20, symbol M); type: in vivo, velvetleaf (Abutilon theophrasti); conditions: foliage application, 320 g/ha, three weeks after application
Method in brief: as §1

green foxtail [6] = test: Test Example 4: herbicidal effect by soil treatment (Table 19, symbol G); type: in vivo, green foxtail (Setaria viridis); conditions: amount of applied herbicide 320 g/ha
Method in brief: as §2

velvetleaf [7] = test: Test Example 4: herbicidal effect by soil treatment (Table 19, symbol M); type: in vivo, velvetleaf (Abutilon theophrasti); conditions: amount of applied herbicide 320 g/ha
Method in brief: as §2

green foxtail [8] = test: Test Example 5: herbicidal effect by foliage application, plastic box (Table 20, symbol G); type: in vivo, green foxtail (Setaria viridis); conditions: foliage application, 320 g/ha, three weeks after application
Method in brief: as §1

false cleavers [9] = test: Test Example 4: herbicidal effect by soil treatment (Table 19, symbol Q); type: in vivo, false cleavers (Galium spurium); conditions: amount of applied herbicide 320 g/ha
Method in brief: as §2

windgrass [10] = test: Test Example 5: herbicidal effect by foliage application, plastic box (Table 20, symbol L); type: in vivo, windgrass (Apera spica-venti); conditions: foliage application, 320 g/ha, three weeks after application
Method in brief: as §1

blackgrass [11] = test: Test Example 4: herbicidal effect by soil treatment (Table 19, symbol J); type: in vivo, blackgrass (Alopecurus myosuroides); conditions: amount of applied herbicide 320 g/ha
Method in brief: as §2

wild oat [12] = test: Test Example 5: herbicidal effect by foliage application, plastic box (Table 20, symbol I); type: in vivo, wild oat (Avena fatua); conditions: foliage application, 320 g/ha, three weeks after application
Method in brief: as §1

redroot pigweed [13] = test: Test Example 5: herbicidal effect by foliage application, plastic box (Table 20, symbol N); type: in vivo, redroot pigweed (Amaranthus retroflexus); conditions: foliage application, 320 g/ha, three weeks after application
Method in brief: as §1

chickweed [14] = test: Test Example 4: herbicidal effect by soil treatment (Table 19, symbol P); type: in vivo, common chickweed (Stellaria media); conditions: amount of applied herbicide 320 g/ha
Method in brief: as §2

southern crabgrass [15] = test: Test Example 5: herbicidal effect by foliage application, plastic box (Table 20, symbol F); type: in vivo, southern crabgrass (Digitaria ciliaris); conditions: foliage application, 320 g/ha, three weeks after application
Method in brief: as §1

persian speedwell [16] = test: Test Example 4: herbicidal effect by soil treatment (Table 19, symbol R); type: in vivo, Persian speedwell (Veronica persica); conditions: amount of applied herbicide 320 g/ha
Method in brief: as §2

redroot pigweed [17] = test: Test Example 4: herbicidal effect by soil treatment (Table 19, symbol N); type: in vivo, redroot pigweed (Amaranthus retroflexus); conditions: amount of applied herbicide 320 g/ha
Method in brief: as §2

wild oat [18] = test: Test Example 4: herbicidal effect by soil treatment (Table 19, symbol I); type: in vivo, wild oat (Avena fatua); conditions: amount of applied herbicide 320 g/ha
Method in brief: as §2

southern crabgrass [19] = test: Test Example 4: herbicidal effect by soil treatment (Table 19, symbol F); type: in vivo, southern crabgrass (Digitaria ciliaris); conditions: amount of applied herbicide 320 g/ha
Method in brief: as §2

barnyard grass [20] = test: Test Example 3: herbicidal effect by foliage application, Wagner pot (Table 18, symbol H); type: in vivo, barnyard grass (Echinochloa crus-galli); conditions: 320 g/ha
Method in brief: (§3)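 Plants were sown in alluvial soil held under 0.1–0.5 cm standing water and grown 14 days in a greenhouse at 25–30 °C. An emulsifiable formulation, water-diluted to the set dose, was then sprayed onto the foliage, and effects were scored three weeks later using previously defined criteria.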

windgrass [21] = test: Test Example 4: herbicidal effect by soil treatment (Table 19, symbol L); type: in vivo, windgrass (Apera spica-venti); conditions: amount of applied herbicide 320 g/ha
Method in brief: as §2

lambsquarters [22] = test: Test Example 5: herbicidal effect by foliage application, plastic box (Table 20, symbol O); type: in vivo, lambsquarters (Chenopodium album); conditions: foliage application, 320 g/ha, three weeks after application
Method in brief: as §1

Italian ryegrass [23] = test: Test Example 4: herbicidal effect by soil treatment (Table 19, symbol K); type: in vivo, Italian ryegrass (Lolium multiflorum); conditions: amount of applied herbicide 320 g/ha
Method in brief: as §2

persian speedwell [24] = test: Test Example 5: herbicidal effect by foliage application, plastic box (Table 20, symbol R); type: in vivo, Persian speedwell (Veronica persica); conditions: foliage application, 320 g/ha, three weeks after application
Method in brief: as §1

chickweed [25] = test: Test Example 5: herbicidal effect by foliage application, plastic box (Table 20, symbol P); type: in vivo, common chickweed (Stellaria media); conditions: foliage application, 320 g/ha, three weeks after application
Method in brief: as §1

rice flat sedge = test: Test Example 3: herbicidal effect by foliage application, Wagner pot (Table 18, symbol E); type: in vivo, rice flat sedge (Cyperus iria); conditions: 320 g/ha
Method in brief: as §3

Chinese sprangletop = test: Test Example 3: herbicidal effect by foliage application, Wagner pot (Table 18, symbol D); type: in vivo, chinese sprangletop (Leptochloa chinensis); conditions: 320 g/ha
Method in brief: as §3

false cleavers [26] = test: Test Example 5: herbicidal effect by foliage application, plastic box (Table 20, symbol Q); type: in vivo, false cleavers (Galium spurium); conditions: foliage application, 320 g/ha, three weeks after application
Method in brief: as §1

lambsquarters [27] = test: Test Example 4: herbicidal effect by soil treatment (Table 19, symbol O); type: in vivo, lambsquarters (Chenopodium album); conditions: amount of applied herbicide 320 g/ha
Method in brief: as §2

COc1cc(Cl)ccc1-c1sc2ccccc2c1-c1c(O)c(C)nn(C)c1=O [1-060]
herbicidal effect grade, H: barnyard grass (barnyard grass [1]): 3 (Herbicidal rate of 40% or more and less than 70%) | herbicidal effect grade, K: Italian ryegrass (Italian ryegrass [2]): 3 (Herbicidal rate of 40% or more and less than 70%) | herbicidal effect rating, H: barnyard grass (barnyard grass [3]): 0 (Herbicidal rate of 5% or less (almost no effect)) | herbicidal effect grade, J: blackgrass (blackgrass [4]): 3 (Herbicidal rate of 40% or more and less than 70%) | herbicidal effect grade, M: velvetleaf (velvetleaf [5]): 3 (Herbicidal rate of 40% or more and less than 70%) | herbicidal effect rating, G: green foxtail (green foxtail [6]): 0 (Herbicidal rate of 5% or less (almost no effect)) | herbicidal effect rating, M: velvetleaf (velvetleaf [7]): 0 (Herbicidal rate of 5% or less (almost no effect)) | herbicidal effect grade, G: green foxtail (green foxtail [8]): 3 (Herbicidal rate of 40% or more and less than 70%) | herbicidal effect rating, Q: false cleavers (false cleavers [9]): 3 (Herbicidal rate of 40% or more and less than 70%) | herbicidal effect grade, L: windgrass (windgrass [10]): 5 (Herbicidal rate of 90% or more (almost completely withered)) | herbicidal effect rating, J: blackgrass (blackgrass [11]): 0 (Herbicidal rate of 5% or less (almost no effect)) | herbicidal effect grade, I: wild oat (wild oat [12]): 3 (Herbicidal rate of 40% or more and less than 70%) | herbicidal effect grade, N: redroot pigweed (redroot pigweed [13]): 3 (Herbicidal rate of 40% or more and less than 70%) | herbicidal effect rating, P: chickweed (chickweed [14]): 4 (Herbicidal rate of 70% or more and less than 90%) | herbicidal effect grade, F: southern crabgrass (southern crabgrass [15]): 3 (Herbicidal rate of 40% or more and less than 70%) | herbicidal effect rating, R: persian speedwell (persian speedwell [16]): 5 (Herbicidal rate of 90% or more (almost completely withered)) | herbicidal effect rating, N: redroot pigweed (redroot pigweed [17]): 0 (Herbicidal rate of 5% or less (almost no effect)) | herbicidal effect rating, I: wild oat (wild oat [18]): 0 (Herbicidal rate of 5% or less (almost no effect)) | herbicidal effect rating, F: southern crabgrass (southern crabgrass [19]): 0 (Herbicidal rate of 5% or less (almost no effect)) | herbicidal effect on H (barnyard grass), rating 0-5 (barnyard grass [20]): 4 (Herbicidal rate of 70% or more and less than 90%) | herbicidal effect rating, L: windgrass (windgrass [21]): 1 (Herbicidal rate of 5% or more and less than 20%) | herbicidal effect grade, O: lambsquarters (lambsquarters [22]): 5 (Herbicidal rate of 90% or more (almost completely withered)) | herbicidal effect rating, K: Italian ryegrass (Italian ryegrass [23]): 0 (Herbicidal rate of 5% or less (almost no effect)) | herbicidal effect grade, R: persian speedwell (persian speedwell [24]): 5 (Herbicidal rate of 90% or more (almost completely withered)) | herbicidal effect grade, P: chickweed (chickweed [25]): 5 (Herbicidal rate of 90% or more (almost completely withered)) | herbicidal effect on E (rice flat sedge), rating 0-5 (rice flat sedge): 4 (Herbicidal rate of 70% or more and less than 90%) | herbicidal effect on D (Chinese sprangletop), rating 0-5 (Chinese sprangletop): 3 (Herbicidal rate of 40% or more and less than 70%) | herbicidal effect grade, Q: false cleavers (false cleavers [26]): 5 (Herbicidal rate of 90% or more (almost completely withered)) | herbicidal effect rating, O: lambsquarters (lambsquarters [27]): 0 (Herbicidal rate of 5% or less (almost no effect))

CCCC(=O)Oc1c(C)nn(C)c(=O)c1-c1c(-c2cc(C)c(OC)c(C)c2)sc2ccccc12 [1-075]
herbicidal effect grade, H: barnyard grass (barnyard grass [1]): 0 (Herbicidal rate of 5% or less (almost no effect)) | herbicidal effect grade, K: Italian ryegrass (Italian ryegrass [2]): 3 (Herbicidal rate of 40% or more and less than 70%) | herbicidal effect rating, H: barnyard grass (barnyard grass [3]): 1 (Herbicidal rate of 5% or more and less than 20%) | herbicidal effect grade, J: blackgrass (blackgrass [4]): 0 (Herbicidal rate of 5% or less (almost no effect)) | herbicidal effect grade, M: velvetleaf (velvetleaf [5]): 0 (Herbicidal rate of 5% or less (almost no effect)) | herbicidal effect rating, G: green foxtail (green foxtail [6]): 0 (Herbicidal rate of 5% or less (almost no effect)) | herbicidal effect rating, M: velvetleaf (velvetleaf [7]): 0 (Herbicidal rate of 5% or less (almost no effect)) | herbicidal effect grade, G: green foxtail (green foxtail [8]): 0 (Herbicidal rate of 5% or less (almost no effect)) | herbicidal effect rating, Q: false cleavers (false cleavers [9]): 0 (Herbicidal rate of 5% or less (almost no effect)) | herbicidal effect grade, L: windgrass (windgrass [10]): 0 (Herbicidal rate of 5% or less (almost no effect)) | herbicidal effect rating, J: blackgrass (blackgrass [11]): 0 (Herbicidal rate of 5% or less (almost no effect)) | herbicidal effect grade, I: wild oat (wild oat [12]): 0 (Herbicidal rate of 5% or less (almost no effect)) | herbicidal effect grade, N: redroot pigweed (redroot pigweed [13]): 3 (Herbicidal rate of 40% or more and less than 70%) | herbicidal effect rating, P: chickweed (chickweed [14]): 0 (Herbicidal rate of 5% or less (almost no effect)) | herbicidal effect grade, F: southern crabgrass (southern crabgrass [15]): 0 (Herbicidal rate of 5% or less (almost no effect)) | herbicidal effect rating, R: persian speedwell (persian speedwell [16]): 3 (Herbicidal rate of 40% or more and less than 70%) | herbicidal effect rating, N: redroot pigweed (redroot pigweed [17]): 0 (Herbicidal rate of 5% or less (almost no effect)) | herbicidal effect rating, I: wild oat (wild oat [18]): 0 (Herbicidal rate of 5% or less (almost no effect)) | herbicidal effect rating, F: southern crabgrass (southern crabgrass [19]): 0 (Herbicidal rate of 5% or less (almost no effect)) | herbicidal effect on H (barnyard grass), rating 0-5 (barnyard grass [20]): 3 (Herbicidal rate of 40% or more and less than 70%) | herbicidal effect rating, L: windgrass (windgrass [21]): 0 (Herbicidal rate of 5% or less (almost no effect)) | herbicidal effect grade, O: lambsquarters (lambsquarters [22]): 0 (Herbicidal rate of 5% or less (almost no effect)) | herbicidal effect rating, K: Italian ryegrass (Italian ryegrass [23]): 0 (Herbicidal rate of 5% or less (almost no effect)) | herbicidal effect grade, R: persian speedwell (persian speedwell [24]): 5 (Herbicidal rate of 90% or more (almost completely withered)) | herbicidal effect grade, P: chickweed (chickweed [25]): 0 (Herbicidal rate of 5% or less (almost no effect)) | herbicidal effect on E (rice flat sedge), rating 0-5 (rice flat sedge): 5 (Herbicidal rate of 90% or more (almost completely withered)) | herbicidal effect on D (Chinese sprangletop), rating 0-5 (Chinese sprangletop): 0 (Herbicidal rate of 5% or less (almost no effect)) | herbicidal effect grade, Q: false cleavers (false cleavers [26]): 0 (Herbicidal rate of 5% or less (almost no effect)) | herbicidal effect rating, O: lambsquarters (lambsquarters [27]): 0 (Herbicidal rate of 5% or less (almost no effect))

Reference: US20230085307A1, “PYRIDAZINONE COMPOUND AND HERBICIDE” (NISSAN CHEMICAL CORPORATION, priority 2019, published 2023)
